{
  "source": "patent US8455435B2",
  "about": "“Remedies for ischemia” (Ludwig-Maximilians-Universitat Munchen, priority 2006, dated 2013)",
  "key": {"[1]": {"test_system": "SCF", "assay": "SCF serum level by ELISA after PTH", "format": "in vivo, C57BL/6 mice", "settings": "day 6 of PTH stimulation", "method": "Mice were divided into the following groups: 1) administration of saline daily for 6 days, sacrificed at day 7 (n=6). 2) administration of PTH (Bachem) daily for 6 consecutive days (80 μg per kg body weight per day, intraperitoneally), sacrificed at day 7 (n=6). 3) administration of PTH daily for 14 consecutive days, sacrificed at day 15 (n=6). 4) administration of G-CSF (Amgen Biologicals) daily for 5 consecutive days (200 μg per kg body weight per day, intraperitoneally), sacrificed at day 6 (n=6).\nG-CSF and SCF serum levels were determined by ELISA (Mouse G-CSF and Mouse SCF, RayBiotech)."}, "[2]": {"test_system": "CD45 positive stem cells in peripheral blood", "assay": "Mobilization of bone marrow derived cells by PTH(1-34), flow cytometry of peripheral blood", "format": "in vivo, C57BL/6 mice", "method": "8-12 week old C57BL/6 mice (n=5) were either treated with PTH (80 μg/kg/d) or saline daily for 5 or 14 consecutive days. At day 6 and day 14, 1 ml of peripheral blood was harvested from each mouse by aspirating the carotid artery. To define the number of leukocytes, heparinized blood samples were analyzed using a conventional hematological cell analyzer (Sysmex XE 2100). Mononuclear cells were separated by density-gradient centrifugation using Histopaque solution (1.077 g/ml, Sigma Chemicals), purified and resuspended in phosphate-buffered saline (PBS) containing 1% bovine serum albumin. Cells were incubated for 40 minutes in the dark at 4° C. with the following fluorescein-isothiocyanate (FITC), phycoerythrin (PE), and peridinin-chlorophyll-protein (PerCP) conjugated monoclonal antibodies: CD45− PerCP, CD34-FITC, CD31-PE, Sca-1-PE and c-kit-PE (all from BD Pharmingen). Matching isotype antibodies (BD Pharmingen) served as controls. Cells were analyzed by 3-color flow cytometry using a Coulter® Epics® XL-MCL™ flow cytometer (Beckman Coulter). Each analysis included 20000 events."}, "[3]": {"test_system": "infarcted left ventricle", "assay": "Histology: infarct size, wall thickness, infarct composition after MI, PTH treatment", "format": "in vivo, C57BL/6 mice", "settings": "for LV-infarct size (area of necrosis and granulation tissue): day 6, % of total LV area", "method": "Myocardial infarction was induced in male C57BL/6 mice 8-12 weeks of age by surgical occlusion of the left anterior descending artery (LAD) through a left anterolateral approach. Mice were anesthetized by intraperitoneal injection of a mixture of 100 mg/kg ketamine (Sigma Chemical Co., St. Louis, Mo.) and 5 mg/kg Xylazine (Sigma), intubated and artificially ventilated by a mouse ventilator (HUGO SACHS, March, Germany) with 200 strokes/min and 200 μl/stroke. Animal care and all experimental procedures were performed in strict accordance to the German and National Institutes of Health animal legislation guidelines and were approved by the local animal care and use committees.\nAfter occlusion of the LAD, mice were divided into the following groups 1) subcutaneous administration of saline daily for 5 days, sacrificed at day 6 (n=10) and day 30 (n=15); 2) administration of rat PTH (1-34) daily for 5 and 14 consecutive days (80 μg/kg/d s.c., Bachem), sacrificed at day 6 (n=9) and day 30 (n=15); 3) sham operated animals sacrificed at day 30 (n=5), and not operated control animals receiving saline (n=6) sacrificed at day 6 and at day 30. All animals received BrdU ([…]) for 5 consecutive days. BrdU and cytokine treatment were started 12-24 hours after LAD occlusion.\nAt day 6 (n=10) and day 30 (n=10), hearts were excised. After fixation in 4% phosphate buffered formalin the hearts were cut transversally into 2 mm thick slices and embedded in paraffin. 4 μm thick sections were cut and mounted on positively charged glass slides. Standard histological procedures (hematoxilin/eosin and Masson trichrome) and immunostaining (see below) were performed.\nInfarct size was determined as area of infarction (Al) correlated to the area of the left ventricle (including LV-septum) in four different slices from the base to the apex of a heart. Total infarct size was calculated by multiplication of the mean percentage value of the circular infarct area with the quotient: vertical extension of the infarct area/total ventricular extension. Wall thickness was measured by taking the average length of five segments along radii from the centre of the left ventricle through the thinnest points of the free LV wall and the septal wall. All studies were performed by a blinded pathologist."}, "[4]": {"test_system": "CD31 positive vessels", "assay": "Neovascularization (CD31 positive vessels) in granulation tissue after MI, PTH treatment", "format": "in vivo, mice", "settings": "infarct and borderzone after PTH treatment", "source_text": "C) Representative staining of CD31 positive vessels (left: 100×, right: 400×) in the granulation tissue harboring the borderzone of PTH treated (upper row) and saline treated animals (lower row). […] All sections nuclei (blue) were counterstained with hematoxyline. *p<0.05 saline vs. PTH."}, "[5]": {"test_system": "VEGF-A and VEGF-R1", "assay": "VEGF-A/VEGF-R1 expression in infarct and borderzone after MI, PTH treatment", "format": "in vivo, mice", "source_text": "FIGS. 18A-18B: Immunohistochemical staining of VEGF-A protein in the granulation tissue at the infarct borderzone and RT-PCR analysis of VEGF-A/VEGF-R1 expression • A) Representative staining of VEGF-A protein (brown) in the granulation tissue of sham operated (left), saline (middle) and PTH treated hearts (right). VEGF-A protein is mainly localized on infiltrated cells in the granulation tissue at the borderzone. • B) Bar graphs representing the relative fold increase of VEGF-A (left) and VEGF-1 receptor (right) mRNA expression of saline treated (n=3, striped bars) and of PTH treated myocardial tissue (n=3-5, black bars) normalized to non infarcted control mice (n=3) 48 hours after myocardial infarction. *p<0.05."}, "[6]": {"test_system": "SDF-1", "assay": "SDF-1 expression in ischemic myocardium after PTH treatment", "format": "in vivo, mice", "settings": "48 hours after PTH treatment"}},
  "note": "Values joined by “and” are separate entries in the source; they are usually repeats but may differ in a detail not shown here. Equal values may be shown once.",
  "data": [
    {"substance": "rat PTH (1-34)", "values": [
      {"measurement": "serum level of SCF", "setting": "[1]", "value": "594.6 ± 26.8", "unit": "pg/mL"},
      {"measurement": "increase of CD45+/CD34+ cells", "setting": "[2]; day 6", "value": 4.4, "unit": "fold"},
      {"measurement": "increase of CD45+/CD34+/CD31+ cells", "setting": "[2]; day 6", "value": 2.9, "unit": "fold"},
      {"measurement": "increase of CD45+/CD34+/Sca-1+ cells", "setting": "[2]; day 6", "value": 2.9, "unit": "fold"},
      {"measurement": "increase of CD45+/CD34+/c-kit+ cells", "setting": "[2]; day 6", "value": 6.1, "unit": "fold"},
      {"measurement": "increase of CD45+/CD34+ cells", "setting": "[2]; day 14", "value": 6.0, "unit": "fold"},
      {"measurement": "increase of CD45+/CD34+/CD31+ cells", "setting": "[2]; day 14", "value": 3.1, "unit": "fold"},
      {"measurement": "increase of CD45+/CD34+/Sca-1+ cells", "setting": "[2]; day 14", "value": 2.9, "unit": "fold"},
      {"measurement": "increase of CD45+/CD34+/c-kit+ cells", "setting": "[2]; day 14", "value": 9.0, "unit": "fold"},
      {"measurement": "anterior (free LV) wall thickness", "setting": "[3]; day 6", "value": 0.58, "unit": "mm"},
      {"measurement": "cellular density in the granulation tissue", "setting": "[3]; day 6", "value": "3317±171 /mm^2"},
      {"measurement": "LV-infarct size (area of necrosis and granulation tissue)", "setting": "[3]", "value": 37, "unit": "%"},
      {"measurement": "LV-infarct size (area of necrosis and granulation tissue)", "setting": "[3]; listed as rPTH(1-34)", "value": "37.3±4.9", "unit": "%"},
      {"measurement": "anterior (free LV) wall thickness", "setting": "[3]; day 30", "value": 0.22, "unit": "mm"},
      {"measurement": "frequency of large LV-aneurysms", "setting": "[3]; day 30, vs saline", "value": "lower frequency"},
      {"measurement": "infarct size (area of fibrosis)", "setting": "[3]; day 30 after LAD occlusion", "value": "23.3±4.6% and 23%"},
      {"measurement": "angiogenesis", "setting": "[4]", "value": "significantly increased"},
      {"measurement": "expression of VEGF-A and VEGF-R1", "setting": "[5]", "value": "pronounced expression"},
      {"measurement": "homing factor SDF-1 in the ischemic myocardium", "setting": "[6]", "value": "upregulated"}
    ]}
  ]
}
